Data taken from US20240415819A1, “MACROCYCLIC COMPOUNDS AS PROTEASOME SUBUNIT BETA TYPE-5 INHIBITORS” (Lead Discovery Center GmbH, priority 2021, published 2024).

What was measured:
[1] = system: A549 (human lung carcinoma cell line); assay: Glo assay of A549 cells (Table 3; ProteasomeGlo plating scheme); type: cell-based; details: Homo sapiens; A549 cells; read-out: PGLo A549
Text: Inhibition is indicated as IC50 [nM] (“-”=not measured). […] • Chymotrypsin-Like Cell-Based Proteasome-GloTM Assay (Promega; […]) • Cell culture 384-well plates (Greiner BioOne; 781080) • Dispensing cassette, MultiDrop Standard tube dispensing cassette (Thermo Scientific; 24072670) • DPBS (Pan BioTech; P04-36500) • Cell culture 384-well plates (Greiner BioOne; 781080) • CPD source plate: diamond-shape plate (Labcyte; LP-0200) • Intermediate plate (Labcyte; P-05525) [table] • a. Remove the plates with cells from the incubator. • b. Take all the plates including the compound plate, intermediate plate and Staurosporine plate to the ECHO. • c. Click on “Open” in the ECHO software and select the protocol “QLI5_25ul_30 uM-Grenier”. • d. Follow the on-screen prompts and instructions once you click “Start” to insert the compound plate, intermediate plate and destination plates. • e. Change the final number of destination plates on the program. • f. Follow the on-screen prompts and instructions once you click “Start” to load the Staurosporine and destination plates. • g. Once all the compounds, DMSO and Staurosporine have been transferred, place the destination plates in a wet tissue box. • h. Place the destination plates back into the incubator and incubate at 37° C., 5% CO2 for 105 minutes. • i. Re-seal all the compound+Stauro diamond and intermediate plates and store in the dark. Chymotrypsin like ProteasomeGlo Assay • 1. Thaw the components of the ProteasomeGlo assay at room temperature including the ProteasomeGlo Buffer, the lyophilized Luciferin Detection Reagent and the Suc-LLVY-Glo Substrate. • 2. Reconstitute the Luciferin Detection Reagent in the amber coloured bottle by adding 50 ml of the ProteasomeGlo Buffer. • 3. Vortex the Suc-LLVY-Glo Substrate briefly to reconstitute the Substrate well. • 4. Spin down the Substrate and add 250 μl of the Substrate to the reconstituted Luciferin Detection Reagent from step 2. • 5. Briefly vortex the amber bottle with the mix to prepare a homogenous solution. • 6. Place the mix prepared in step 5 to sit at room temperature for 60 minutes. • 7. After 60 minutes, pipette 25 μl of the mix from step 5 into all wells with the cells. • 8. Shake the plates for 2-5 minutes to ensure the complete mixing of the ProteasomeGlo reagent with the cells. • 9. Leave the plates in the dark for 10-15 minutes. • 10. Measure the luminescence read-out using the Viktor and the protocol “Luminescence_384Well_0.2 sec”. (Note: The Protoeasome-GloTM Reagent (combined Proteasome-GloTM Substrate, Proteasome-GloTM Buffer and Luciferin Detection Reagent) can be stored at 4° C. or -20° C. for 1 month with minimal loss of activity.)

HT-29 cells = assay: CellTiter-Glo luminescent cell viability assay with HT-29 cells (72h incubation); type: cell-based, human; details: Homo sapiens, HT-29, HT29 cells, read-out: CTG HT29
Method: Cell Titer Glo Viability Assay with HT-29 Cells (72h Incubation) The CellTiter-Glo Luminescent Cell Viability Assay (Promega) is a homogeneous method of determining the number of viable cells in culture. It is based on quantification of ATP, indicating the presence of metabolically active cells. On day 1 400 HT-29 cells per well are seeded in white 384well plates (Greiner, #781080) in 25 μl cell culture medium (DMEM (PAN-Biotech #P04-03590)+10% FCS+glutamine). After incubation for 24 h at 37° C./5% CO2 compounds or DMSO are added at different concentrations by Echo Liquid Handling Technology. Cells are further incubated in humidified chambers for 72 h at 37° C. and 5% CO2. Cells treated with the compound vehicle DMSO are used as positive controls and cells treated with 10 μM Staurosporine serve as negative controls. At day 5-72h after compound addition—the CellTiter Glo Reagent is prepared according to the instructions of the kit (Promega Inc.): Reagent is mixed 1:1 with cell culture medium. Thereon, mixture and assay plates are equilibrated at room temperature for 20 min. Equal volumes of the reagent-medium-mixture is added to the volume of culture medium present in each well. The plates are mixed at […] for 2 minutes on an orbital shaker. The microplates are then incubated at room temperature for 10 minutes for stabilization of the luminescent signal. Following incubation the luminescence is recorded on a Victor microplate reader (Perkin Elmer) using a 200 ms integration time. The data is then analyzed with Excel using the XLFIT Plugin (dose response Fit 205) for IC50-determination. As quality control the Z′-factor is calculated from 16 positive and negative control values. […] Inhibition is indicated as IC50 [nM] (“-”=not measured).

[2] = biological target: T1, β5 subunit of the human immunoproteasome (IPS) (Homo sapiens, UniProt P28062); assay: β5 inhibition assay, human immunoproteasome (Suc-LLVY-AMC); type: biochemical; details: IC50 class, Suc-LLVY-AMC substrate
T1 construct: purchased Boston Biochem E-370
Method: The enzymatic activity of the β5 subunit of the human constitutive proteasome (CPS) is analyzed. In another assay, which differs from the assay of the human constitutive proteasome only in using the human immunoproteasome (IPS) the enzymatic activity of the β5 subunit of the human immunoproteasome (IPS) is analyzed. Incubation of the enzyme with its fluorogenic substrate Suc-LLVY-AMC leads to liberation of the fluorescent dye AMC which can be measured with a suitable plate reader. • 100 mM HEPES pH7.5 • 50 mM NaCl • 0.02% SDS • 1 mM DTT (add fresh) • Victor X5 (Perkin Elmer) • Label: Umbeliferone (0.1s) • Excitation wavelength: 355 nm • Emission wavelength: 460 nm • 4 μl human cPS or IPS enzyme in assay buffer (final assay concentration 1 nM) or 4 μl assay buffer for negative controls • Compound addition via acoustic dispenser (Echo 520, Labcyte) • Mix and incubate @ RT for 10 min • 4 μl Suc-LLVY-AMC substrate (final assay concentration 22.6 μM) • Mix and incubate @ RT for 4 h (dark) • Stop reaction with 4 μl Bortezomib (final assay concentration 1 μM) • 15 min @ RT • Measure (Excitation 355 nm; Emission 460 nm)

[3] = biological target: T2, β5 subunit of the human constitutive proteasome (CPS) (Homo sapiens, UniProt P28074); assay: β5 inhibition assay, human constitutive proteasome (Suc-LLVY-AMC); type: biochemical; details: IC50 class, Suc-LLVY-AMC substrate
T2 construct: purchased Boston Biochem E-360
Method: The enzymatic activity of the β5 subunit of the human constitutive proteasome (CPS) is analyzed. In another assay, which differs from the assay of the human constitutive proteasome only in using the human immunoproteasome (IPS) the enzymatic activity of the β5 subunit of the human immunoproteasome (IPS) is analyzed. […] Inhibition is indicated as IC50 [nM] (“-”=not measured).

SMILES	IC50 [1] [nM]	IC50 (HT-29 cells) [nM]	IC50 [2] [nM]	IC50 [3] [nM]
CC(=O)N[C@H]1CCCC(=O)NCCCCOc2ccc(C)c(c2)CNC(=O)[C@H](CCc2ccccc2)NC1=O [Compound 269, N-((12S,15S)-1^4-methyl-8,13,16-trioxo-15-phenethyl-2-oxa-7,14,17-triaza-1(1,3)-benzenacyclooctadecaphane-12-yl)acetamide]	1000 to 5000	1000 to 5000	< 100	1000 to 5000
Cc1ccc2cc1CNC(=O)[C@H](CCc1ccccc1)NC(=O)[C@@H](NC(=O)Cc1nc(-c3ccccc3)n[nH]1)CC(=O)N1CCCC(CCO2)C1 (stereo partly drawn) [Compound 328, N-((9S,12S)-5^4-methyl-8,11,14-trioxo-9-phenethyl-4-oxa-7,10-diaza-1(3,1)-piperidina-5(1,3)-benzenacyclotetradecaphane-12-yl)-2-(3-phenyl-1H-1,2,4-triazol-5-yl)acetamide]	100 to 500	< 100	< 100	< 100
Cc1cc2cc(c1C)CNC(=O)[C@H](CCc1ccccc1)NC(=O)CCC(=O)N1CCCC(CCO2)C1 (stereo partly drawn) [Compound 95, (9S)-5^4,5^5-dimethyl-9-phenethyl-4-oxa-7,10-diaza-1(3,1)-piperidina-5(1,3)-benzenacyclotetradecaphane-8,11,14-trione]	1000 to 5000	500 to 1000	< 100	< 100
Cc1ccc2cc1CNC(=O)[C@H](CCc1ccccc1)NC(=O)[C@@H](NC(=O)OCc1ccccc1)CC(=O)N1CCC(CCO2)C1 (stereo partly drawn) [Compound 325, benzyl ((9S,12S)-5^4-methyl-8,11,14-trioxo-9-phenethyl-4-oxa-7,10-diaza-1(3,1)-pyrrolidina-5(1,3)-benzenacyclotetradecaphane-12-yl)carbamate]	< 100	< 100	< 100	< 100
Cc1ccc2cc1CNC(=O)[C@H](CCc1ccccc1)NC(=O)[C@@H](NC(=O)Cc1cn3ccsc3n1)CC(=O)N1CCCC(CCO2)C1 (stereo partly drawn) [Compound 330, 2-(imidazo[2,1-b]thiazol-6-yl)-N-((9S,12S)-5^4-methyl-8,11,14-trioxo-9-phenethyl-4-oxa-7,10-diaza-1(3,1)-piperidina-5(1,3)-benzenacyclotetradecaphane-12-yl)acetamide]	< 100	< 100	< 100	< 100
CC(=O)N[C@H]1CCC(=O)N2CCC2(C)COc2ccc(C)c(c2)CNC(=O)[C@H](CCc2ccccc2)NC1=O (stereo partly drawn) [Compound 265, N-((8S,11S)-1^2,4^4-dimethyl-7,10,14-trioxo-8-phenethyl-3-oxa-6,9-diaza-1(2,1)-azetidina-4(1,3)-benzenacyclotetradecaphane-11-yl)acetamide]	> 5000	100 to 500	100 to 500	–

Further lines, results first:

IC50 [1] [nM]	IC50 (HT-29 cells) [nM]	IC50 [2] [nM]	IC50 [3] [nM]	SMILES
< 100	< 100	< 100	< 100	COC(C(=O)N[C@H]1CC(=O)N2CCCC(CCOc3ccc(C)c(c3)CNC(=O)[C@H](CCc3ccccc3)NC1=O)C2)c1ccc(NC(C)=O)cc1 (stereo partly drawn) [Compound 323, 2-(4-acetamidophenyl)-2-methoxy-N-((9S,12S)-5^4-methyl-8,11,14-trioxo-9-phenethyl-4-oxa-7,10-diaza-1(3,1)-piperidina-5(1,3)-benzenacyclotetradecaphane-12-yl)acetamide]
< 100	< 100	< 100	< 100	Cc1ccc2cc1CNC(=O)[C@H](CCc1ccccc1)NC(=O)[C@@H](NC(=O)Cc1ccccn1)CC(=O)N1CCCC(CCO2)C1 (stereo partly drawn) [Compound 331, N-((9S,12S)-5^4-methyl-8,11,14-trioxo-9-phenethyl-4-oxa-7,10-diaza-1(3,1)-piperidina-5(1,3)-benzenacyclotetradecaphane-12-yl)-2-(pyridin-2-yl)acetamide]
< 100	< 100	< 100	< 100	Cc1ccc2cc1CNC(=O)[C@H](CCc1ccccc1)NC(=O)[C@@H](NC(=O)C(C)c1ccc3ncccc3c1)CC(=O)N1CCCC(CCO2)C1 (stereo partly drawn) [Compound 369, N-((9S,12S)-5^4-methyl-8,11,14-trioxo-9-phenethyl-4-oxa-7,10-diaza-1(3,1)-piperidina-5(1,3)-benzenacyclotetradecaphane-12-yl)-2-(quinolin-6-yl)propanamide]
< 100	< 100	< 100	< 100	CCOC(C(=O)N[C@H]1CC(=O)N2CCCC(CCOc3ccc(C)c(c3)CNC(=O)[C@H](CCc3ccccc3)NC1=O)C2)c1ccc(NC(C)=O)cc1 (stereo partly drawn) [Compound 324, 2-(4-acetamidophenyl)-2-ethoxy-N-((9S,12S)-5^4-methyl-8,11,14-trioxo-9-phenethyl-4-oxa-7,10-diaza-1(3,1)-piperidina-5(1,3)-benzenacyclotetradecaphane-12-yl)acetamide]
